Target: T1, human recombinant melatonin MT1 receptors (Homo sapiens, UniProt P48039)
T1 construct: expressed in transfected cells; host or cells: CHO-K1 cells (membranes)
Assay: Inhibitory activity test against melatonin MT1 receptor ([35S]GTPγS binding, SPA)
Assay type: biochemical
Conditions: membranes of CHO-K1 cells expressing MT1, 0.1 nM 2-iodomelatonin, 0.3 nM [35S]GTPγS, HEPES buffer pH 7.4; test concentration not given
Description: An inhibitory activity of the tyrosine derivative of the present invention against a melatonin MT1 receptor was evaluated. Specifically, human recombinant melatonin MT1 receptors expressed in CHO-K1 cells were used in modified HEPES buffer pH 7.4. The tyrosine derivative obtained in the above Example 8 was preincubated with 0.025 mg/mL of membranes of the cell and 1 μM of guanosine diphosphate in modified HEPES buffer (pH 7.4) at 25° C. for 20 minutes, then SPA, i.e. Scintillation proximity assay, beads were added thereto. The mixture was preincubated at 30° C. for 60 minutes. The reaction was initiated by adding 0.3 nM of [^35S]GTPγS and incubating the mixture for 30 minutes, and the test compound-induced inhibition of 0.1 nM 2-iodomelatonin-induced increase of [^35S]GTPγS binding response was measured.

T1 sequence (P48039 whole entry): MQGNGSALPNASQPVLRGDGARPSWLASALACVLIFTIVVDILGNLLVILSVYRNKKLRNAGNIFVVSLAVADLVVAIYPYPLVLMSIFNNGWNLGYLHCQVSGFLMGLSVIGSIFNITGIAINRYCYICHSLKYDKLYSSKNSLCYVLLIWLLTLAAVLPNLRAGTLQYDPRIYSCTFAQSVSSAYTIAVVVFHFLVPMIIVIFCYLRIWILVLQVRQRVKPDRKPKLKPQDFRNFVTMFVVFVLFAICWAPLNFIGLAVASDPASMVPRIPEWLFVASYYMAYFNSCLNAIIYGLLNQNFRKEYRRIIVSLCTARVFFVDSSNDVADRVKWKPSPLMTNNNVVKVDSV

inhibition of 2-iodomelatonin-induced increase of [35S]GTPγS binding response: 33%
Structure (SMILES): CC(C)(C)OC(=O)NC(Cc1cc(OCCCl)ccc1I)C(=O)OC(C)(C)C (stereo not shown) [Example 8]

Source: patent US8907126B2, “Tyrosine derivative and method for producing tyrosine derivative” (NARD Institute, Ltd., priority 2012, dated 2014)
